# Experimental data as given in patent US8546076B2, “Mutational profile in HIV-1 GAG cleavage site correlated with phenotypic drug resistance” (Tibotec Pharmaceuticals Ltd., priority 2007, dated 2013).
# “And” between values parts separate entries of the source, which are not always exact repeats. Identical values can stand only once. Like-named read-outs stand apart in the source and are kept apart here.
# Tested on: HIV-1
# Conditions: for Change versus baseline in log10 viral load (NC = F, non-VF censored), Mean (SE) / Virologic response rate (TLOVR, non-VF censored) defined as a decrease ≧1.0 log10 in plasma viral load versus baseline / Virologic response rate (TLOVR, non-VF censored) defined as a viral load <50 HIV-1 RNA copies/mL / mean changes versus baseline in viral load (size of decrease): Week 24; for mean changes versus baseline in viral load (size of decrease): E428G and/or R452S at baseline
# Method: Virologic response was defined as viral load ≦50 copies/mL at week 24.
# GAG genotypic analysis was performed on virus isolates from subjects of pooled trials.
# Virological failures were defined using the TLOVR non-virologic failure (VF)-censored algorithm in which the responses at time points after discontinuation are not imputed (i.e. left missing) for patients who drop for reasons other than virologic failures. Using this imputation, patients that drop out for reasons other than viro logic failure are not automatically considered as rebounders or non-responders.
# Genotypic analyses were performed by automated population-based sequencing. Sequence data were aligned to the wildtype HIV-1/HXB2CG reference and reported as amino acid changes along GAG and PR. Genotypic mixtures (a combination of different amino acids at 1 position) were reported. Amino acids were presented with their one letter code. Mutations in the 5 PR cleavage sites in the GAG region, encompassing the amino acids 128-137 (p17/p24), 359-368 (p24/p2), 373-382 (p2/p7), 428-437 (p7/p1), and 444-453 (p1/p6), were reported.
# Virologic response was defined using the TLOVR non-VF censored algorithm eliminating patients who had no chance to respond (discontinuation before Week 16). Several endpoints to assess virologic response, e.g. proportion of responders with confirmed 1.0 log10 decrease in viral load versus baseline, change in viral load from baseline (NC=F), and proportion of responders with viral load <50 or <400 HIV-1 RNA copies/mL were evaluated.
# Virologic response was defined using the TLOVR, non-VF censored algorithm eliminating patients who had no chance to respond (discontinuation before Week 16), resulting in 445 subjects included in the analysis. To assess outcome, several endpoints including the primary endpoint (proportion of responders with confirmed 1.0 log10 decrease in viral load at Week 24), change in viral load from baseline at Week 24 and proportion of responders with viral load <50 HIV-1 RNA copies/mL at Week 24 were evaluated.
# Only mutations present at baseline in 10 subjects of the no/non-naïve ENF group (N=327) were taken into consideration.
# [1] = E428G (p7/p1) at baseline, All subjects
# [2] = E428G (p7/p1) at baseline, naïve ENF
# [3] = R452S (p1/p6) at baseline, All subjects
# [4] = R452S (p1/p6) at baseline, naïve ENF
substance,measurement,setting,value
darunavir/ritonavir [DRV/rtv],"Change versus baseline in log10 viral load (NC = F, non-VF censored), Mean (SE)",[1],−1.07 (0.298) log10 HIV-1 RNA copies/mL
same,"Virologic response rate (TLOVR, non-VF censored) defined as a decrease ≧1.0 log10 in plasma viral load versus baseline",[1],9 (47.4) %
same,"Virologic response rate (TLOVR, non-VF censored) defined as a viral load <50 HIV-1 RNA copies/mL",[1],3 (15.8) %
same,"Change versus baseline in log10 viral load (NC = F, non-VF censored), Mean (SE)",[2],−1.72 (0.763) log10 HIV-1 RNA copies/mL
same,"Virologic response rate (TLOVR, non-VF censored) defined as a decrease ≧1.0 log10 in plasma viral load versus baseline",[2],3 (75.0) %
same,"Virologic response rate (TLOVR, non-VF censored) defined as a viral load <50 HIV-1 RNA copies/mL",[2],1 (25.0) %
same,"Change versus baseline in log10 viral load (NC = F, non-VF censored), Mean (SE)","E428G (p7/p1) at baseline, no/non-naïve ENF",−0.89 (0.318) log10 HIV-1 RNA copies/mL
same,mean changes versus baseline in viral load (size of decrease),no/non-naïve ENF,< 1.0 log10 and > 0.5 log10
same,mean changes versus baseline in viral load (size of decrease),"other subgroups (All, naïve ENF)",> 1.0 log10
same,"Virologic response rate (TLOVR, non-VF censored) defined as a viral load <50 HIV-1 RNA copies/mL","L449P (p1/p6) at baseline, All subjects",12 (36.4) %
same,"Virologic response rate (TLOVR, non-VF censored) defined as a viral load <50 HIV-1 RNA copies/mL","L449P (p1/p6) at baseline, naïve ENF",6 (50.0) %
same,"Change versus baseline in log10 viral load (NC = F, non-VF censored), Mean (SE)","Overall, All subjects",−1.84 (0.061) log10 HIV-1 RNA copies/mL
same,"Virologic response rate (TLOVR, non-VF censored) defined as a decrease ≧1.0 log10 in plasma viral load versus baseline","Overall, All subjects",315 (70.8) %
same,"Virologic response rate (TLOVR, non-VF censored) defined as a viral load <50 HIV-1 RNA copies/mL","Overall, All subjects",207 (46.5) %
same,"Change versus baseline in log10 viral load (NC = F, non-VF censored), Mean (SE)","Overall, naïve ENF",−2.33 (0.109) log10 HIV-1 RNA copies/mL
same,"Virologic response rate (TLOVR, non-VF censored) defined as a decrease ≧1.0 log10 in plasma viral load versus baseline","Overall, naïve ENF",102 (86.4) %
same,"Virologic response rate (TLOVR, non-VF censored) defined as a viral load <50 HIV-1 RNA copies/mL","Overall, naïve ENF",66 (55.9) %
same,"Change versus baseline in log10 viral load (NC = F, non-VF censored), Mean (SE)","Overall, no/non-naïve ENF",−1.67 (0.071) log10 HIV-1 RNA copies/mL
same,"Change versus baseline in log10 viral load (NC = F, non-VF censored), Mean (SE)",[3],−1.12 (0.293) log10 HIV-1 RNA copies/mL
same,"Virologic response rate (TLOVR, non-VF censored) defined as a decrease ≧1.0 log10 in plasma viral load versus baseline",[3],12 (48.0) %
same,"Virologic response rate (TLOVR, non-VF censored) defined as a viral load <50 HIV-1 RNA copies/mL",[3],7 (28.0) %
same,"Change versus baseline in log10 viral load (NC = F, non-VF censored), Mean (SE)",[4],−2.50 (0.276) log10 HIV-1 RNA copies/mL
same,"Virologic response rate (TLOVR, non-VF censored) defined as a decrease ≧1.0 log10 in plasma viral load versus baseline",[4],7 (100) %
same,"Virologic response rate (TLOVR, non-VF censored) defined as a viral load <50 HIV-1 RNA copies/mL",[4],6 (85.7) %
same,"Change versus baseline in log10 viral load (NC = F, non-VF censored), Mean (SE)","R452S (p1/p6) at baseline, no/non-naïve ENF",−0.58 (0.312) log10 HIV-1 RNA copies/mL
same,"Virologic response rate (TLOVR, non-VF censored) defined as a viral load <50 HIV-1 RNA copies/mL","S451T (p1/p6) at baseline, All subjects",4 (18.2) %
same,"Virologic response rate (TLOVR, non-VF censored) defined as a viral load <50 HIV-1 RNA copies/mL","S451T (p1/p6) at baseline, naïve ENF",1 (12.5) %
same,virologic response (viral load ≦50 copies/mL) relative to overall response,"week 24, E428G at baseline, univariate analysis, N=467",< 75 % of overall response
